How the values were obtained:
Type in all cases: in vivo
[1] = test system: American cockroach, Periplaneta americana (L.); assay: Fumigant toxicity in sealed glass jar, American cockroach; conditions: 8-36 adult males
[2] = test system: Cowpea weevil, Callosobruchus maculatus (F.); assay: Fumigant toxicity, Cowpea weevil; set-up: concentration or dose not given beside the values; conditions: 30 adults
Description: Shown in Table 2 is the toxicity of both monoiodinated and diiodinated hydrocarbons to the German and American cockroach and the Cowpea weevil after 24 hours of exposure.

[3] = test system: Meloidogyne arenaria; assay: Greenhouse nematicide test, iodomethane vs ethylene diiodide (Experiment 5)
Description: (§1) In this experiment, the nematotoxic properties of ethylene diiodide were compared to that of methyl iodide. The nematicidal efficacies of iodomethane [IM] and ethylene diiodide [EDI] were compared in a greenhouse experiment using field soil infested with Meloidogyne arenaria, Pratylenchus brachyurus, and Paratrichodorus christiei.
(§2) Each compound was added to soil at rates of 100, 200, 300 and 400 mg s/kg of soil. The soil was potted and kept moist for two weeks when it was planted with ‘Brim’ soybean after taking samples for nematological analyses. After eight weeks of growth, the plants were removed from the pots and soil samples taken. Data was collected on weights of fresh roots and shoots, general appearance of roots [root condition index] and root gall formation by M. arenaria. All EDI rates eliminated M. arenaria juveniles [J2] and populations of the other nematodes in the preplant samples; IM reduced J2 numbers by 50-70%, eliminated P. christiei with the 400 mg rate, but had no effect on P. brachyurus. […] The general appearance of roots was improved by EDI at rates ≦300 mg, but MI had no effect on the variable. […] M. arenaria J2 populations in roots were reduced by 60-70% by MI treatments, but the compound had no effect on root populations of P. brachyurus. MI had no effect on J2 populations in the final soil samples, although it suppressed P. christiei, by 50-70%.

[4] = test system: Paratrichodorus christiei; assay: as above; conditions: all rates (100-400 mg/kg of soil)
Description: as §1, §2

[5] = test system: Pratylenchus brachyurus; assay: as above; conditions: rates 100-400 mg/kg of soil
Description: as §1, §2

[6] = test system: 'Brim' soybean; assay: Soybean growth and root condition in treated soil (Experiment 5)
Description: as §1, §2

[7] = test system: reniform nematode [Rotylenchulus reniformis]; assay: Greenhouse nematicide test in cotton field soil, covered and uncovered pots (Experiment 6, FIGS. 1-4)
Text: FIGS. 2 and 3 illustrate the effectiveness of the diiodoethane and diiodopropane in eliminating the nematode (Rotylenchulus reniformis) from a soil sample. The “x” axis on the top row illustrates the quantity of iodinated hydrocarbon in milligrams per kilogram of soil. The next two rows below the “x” axis indicate the number of nematodes per 100 milliliters of soil, which is also indicated on the “y” axis. In FIG. 2, 1,2-diiodoethane was applied to the soil both in a covered state and an uncovered state. […] This is believed to be so because of the volatility of 1,2 diiodoethane, wherein the cover slows down the rate at which the compound evaporates into the atmosphere.
In this experiment, the pesticidal and herbicidal properties of volatile, low molecular weight, iodinated hydrocarbons were investigated. The relative nematicidal efficacy of iodomethane [C1], 1,2-diiodoethane [C2], 1,3-diiodopropane [C3] and 1,4-diiodobutane [C4] was studied in greenhouse experiments with soil from a cotton field infested with the reniform nematode [Rotylenchulus reniformis]. The chemicals were obtained from Aldrich, Milwaukee, U.S.A. Emulsifiable concentrates of the compounds were prepared by dilution in acetone containing an emulsogen.
For each chemical, an aqueous emulsion with 0.2% [w/w] of the compound was prepared and was applied to soil at rates of 2, 4, 6, 8, 10, and 12 mgs a.i./Kg soil. The treated soil was mixed and transferred to 1L capacity 10-cm diameter cylindrical pots. Pots with untreated soil [control] and with treated soil were placed on a greenhouse bench in a randomized complete block design. Each treatment was represented by 14 replications [pots], one half of which were left uncovered, and the other 7 were covered with polyethylene plastic bags [approx. 1 mil thickness] retained with a rubber around the pots. Soil samples for nematological analysis [salad bowl incubation technique] were collected 7-10 days after application of the materials. […] In covered pots, applications of the material were particularly effective resulting in 100% kill with the 10 and 12 mg rates. All dosages of C3 and C4 eliminated the nematode in covered pots. […] In a greenhouse experiment of similar design to the nematicide experiments, the C3 and C4 emulsions were applied at rates of 2-20 mgs a.i./Kg soil to a soil infested with crabgrass [Digitaria sanguinalis], purple nutsedge [Cyperus rotundus], Jimson weed [Datura stramonium] and a variety of other weed species. All pots were covered, and the number of weeds were counted 7, 14 and 30 days after application of the chemicals.

Question: ICCI [1,2-diiodoethane] was tested. Which “% Mortality after 1 h exposure, American cockroach” value ([1]; 1 h exposure) did it give?
Answer: Its value is 8%.

Question: And the “% Mortality after 24 h exposure, American cockroach” value ([1]; 24 h exposure)?
Answer: Its value is 100%.

Question: And the “% Mortality after 24 h exposure, Cowpea weevil” value [2]?
Answer: The value was 100%.

Question: What about the “M. arenaria juveniles [J2] in preplant samples” value ([3]; all rates (100, 200, 300, 400 mg/kg of soil)) of the same compound?
Answer: The value was “eliminated”.

Question: What about the “Galls in roots of plants from treated soil (M. arenaria)” value ([3]; soybean after eight weeks) of the same compound?
Answer: Its value is “no galls”.

Question: And the “P. christiei populations in preplant samples” value [4]?
Answer: Its value is “eliminated”.

Question: And the “P. brachyurus populations in preplant samples” value [5]?
Answer: The value was “eliminated”.

Question: What about the Phytotoxicity to soybean ([6]; 400 mg) of the same compound?
Answer: Its Phytotoxicity to soybean is “phytotoxic”.

Question: And the “General appearance of roots [root condition index]” value ([6]; rates ≦300 mg)?
Answer: Its value is “improved”.

Question: And the “Numbers of the nematode in soil in response to rates” value ([7]; 2-12 mgs a.i./Kg soil)?
Answer: Its value is “declined linearly”.

Question: What about the “Kill of the nematode” value ([7]; covered pots, 10 and 12 mg rates) of the same compound?
Answer: Its value is 100%.

Question: What about the “Effectiveness covered versus uncovered at eliminating the nematodes (FIG. 2)” value ([7]; covered state and uncovered state) of the same compound?
Answer: Its value is “covered samples were more effective”.
